Key:
Test in all cases: Cell viability assay (ATP quantitation)
[1] = system: WM3060 melanoma cell line; type: cell-based; conditions: 50 nM, 5 days, vs non-targeting control
Experimental: (§1) EsiRNA, siRNA and ASO GapmeRs were transfected in a final concentration of 50 nM unless mentioned otherwise and the transfection reagent Lipofectamine 3000 (2 ul/ml) was added according to the manufacturer's instructions.
(§2) Dependent on cell doubling time, 0.7-2×10^^3 cells were seeded in 96 well plates. 1 day after seeding cells were incubated in media with oligonucleotide concentration and/or MEKi and transfection reagent. 3 (synergy experiments) or 5 (solely ASO) days after transfection Total luminescence was measured on the SynergyHT plate reader (BioTek) using Gen5 software.

MM485 melanoma cell line = type: cell-based; conditions: 50 nM, 5 days, vs non-targeting control
Experimental: as §1, §2

[2] = system: H929 multiple myeloma cell line; type: cell-based; conditions: 50 nM, 5 days, vs non-targeting control
Experimental: as §1, §2

[3] = system: U87-MG Glioblastoma cell line; type: cell-based; conditions: 50 nM, 5 days, vs non-targeting control
Experimental: as §1, §2

[4] = system: A-172 Glioblastoma cell line; type: cell-based; conditions: 50 nM, 5 days, vs non-targeting control
Experimental: as §1, §2

[5] = system: L363 multiple myeloma cell line; type: cell-based; conditions: 50 nM, 5 days, vs non-targeting control
Experimental: as §1, §2

[6] = system: Sk-Mel-5 melanoma cell line; type: cell-based; conditions: 50 nM, 5 days, vs non-targeting control
Experimental: as §1, §2

[7] = system: HCT116 colon carcinoma cell line; type: cell-based; conditions: 50 nM, 5 days, vs non-targeting control
Experimental: as §1, §2

[8] = system: U20S osteosarcoma cell line; type: cell-based; conditions: 50 nM, 5 days, vs non-targeting control
Experimental: as §1, §2

[9] = system: U138-MG Glioblastoma cell line; type: cell-based; conditions: 50 nM, 5 days, vs non-targeting control
Experimental: as §1, §2

[10] = system: SW1271 lung cancer cell line; type: cell-based; conditions: 50 nM, 5 days, vs non-targeting control
Experimental: as §1, §2

[11] = system: SW480 colon carcinoma cell line; type: cell-based; conditions: 50 nM, 5 days, vs non-targeting control
Experimental: as §1, §2

[12] = system: Sk-N-AS Neuroblastoma cell line; type: cell-based; conditions: 50 nM, 5 days, vs non-targeting control
Experimental: as §1, §2

[13] = system: H1299 lung cancer cell line; type: cell-based; conditions: 50 nM, 5 days, vs non-targeting control
Experimental: as §1, §2

[14] = system: T98G Glioblastoma cell line; type: cell-based; conditions: 50 nM, 5 days, vs non-targeting control
Experimental: as §1, §2

[15] = system: Sk-Mel-2-RM trametinib resistant melanoma cell line; type: cell-based; conditions: 50 nM, 5 days, vs non-targeting control
Source text: (§3) Human melanoma cell line VMM39 was purchased from American Type Culture Collection (ATCC). Human melanoma cell lines D04, MM415, WM1366, WM3629, WM3211, Sk-Mel-2 and Sk-Mel-28 were a generous gift from Boris Bastian at the University of California, San Francisco. Primary human melanoma cell line Hs852.T was purchased from the Cell Culture Core Facility (CCCF) at the University of California, San Francisco. Primary human melanoma cell line AV5 was obtained from metastasis of a melanoma patient. All experimental protocols were approved by UCSF Human Research Protection Program Institutional Review Board (IRB #12-0948), all patients signed informed consent, and methods were carried out in accordance with relevant guidelines and regulations. Resistant cell lines DO4RM, MM415RM, Sk-Mel-2RM and WM3629RM were established as previously described. [Sanlorenzo, M. et al., The lincRNA MIRAT binds to IQGAPI and modulates the MAPK pathway in NRAS mutant melanoma. Sci Rep 8, 10902 (2018).] Primary human melanocytic cell lines (PHM) from infant foreskin of five healthy donors were available in our cell repository and pooled. Melanoma cell lines were maintained in RPMI 1640 media supplemented with 10% (vol/vol) heat inactivated fetal bovine serum. Melanocytes were maintained in M254 medium with HMGS supplements (1× final solution). All cell lines were incubated at 37° C. under 5% CO2.
as §1, §2

[16] = system: WM3629RM trametinib resistant melanoma cell line; type: cell-based; conditions: 50 nM, 5 days, vs non-targeting control
Source text: as §3, §1, §2

[17] = system: MM415RM trametinib resistant melanoma cell line; type: cell-based; conditions: 50 nM, 5 days, vs non-targeting control
Source text: as §3, §1, §2

[18] = system: D04RM trametinib resistant melanoma cell line; type: cell-based; conditions: 50 nM, 5 days, vs non-targeting control
Source text: as §3, §1, §2

D04 melanoma cell line = type: cell-based, human; conditions: 50 nM, 5 days (120 hrs), vs non-targeting control
Experimental: as §1, §2

[19] = system: WM3629 melanoma cell line; type: cell-based, human; conditions: 50 nM, 5 days (120 hrs), vs non-targeting control
Experimental: as §1, §2

[20] = system: Sk-Mel-2 melanoma cell line; type: cell-based, human; conditions: 50 nM, 5 days (120 hrs), vs non-targeting control
Experimental: as §1, §2

[21] = system: WM1366 melanoma cell line; type: cell-based, human; conditions: 50 nM, 5 days (120 hrs), vs non-targeting control
Experimental: as §1, §2

[22] = system: Hs852.T primary melanoma cell line; type: cell-based, human; conditions: 50 nM, 5 days (120 hrs), vs non-targeting control
Experimental: as §1, §2

[23] = system: WM3211 melanoma cell line; type: cell-based, human; conditions: 50 nM, 5 days (120 hrs), vs non-targeting control
Experimental: as §1, §2

MM415 melanoma cell line = type: cell-based, human; conditions: 50 nM, 5 days (120 hrs), vs non-targeting control
Experimental: as §1, §2

[24] = system: Sk-Mel-28 melanoma cell line; type: cell-based, human; conditions: 50 nM, 5 days (120 hrs), vs non-targeting control
Experimental: as §1, §2

VMM39 melanoma cell line = type: cell-based, human; conditions: 50 nM, 5 days (120 hrs), vs non-targeting control
Experimental: as §1, §2

[25] = system: H82 lung cancer cell line; type: cell-based; conditions: 50 nM, 5 days, vs non-targeting control
Experimental: as §1, §2

[26] = system: AV5 primary melanoma cell line; type: cell-based, human; conditions: 50 nM, 5 days (120 hrs), vs non-targeting control
Experimental: as §1, §2

[27] = system: sarcoma cell line SK-LMS-1; type: cell-based; conditions: SK-LMS-1 sarcoma; 50 nM, 120 hrs; Lipofectamine3000 2 ul/ml; vs non-targeting control ASO
Experimental: as §1, §2
(§4) Cell viability was compared to treatment with non-targeting control ASO-treatment. Lipofectamine3000 concentration was 2 ul/ml.

[28] = system: hepatocellular carcinoma cell line HepG2; type: cell-based; conditions: 50 nM, 120 hrs, Lipofectamine3000 2 ul/ml, vs non-targeting control ASO
Experimental: as §1, §2, §4

Measured: cell viability decrease

GATCATTTAATTTGAC (QIAGEN GapmeR, modification pattern not given here) [SEQ ID NO: 18, Antisense oligonucleotide targeting RP11-7011.3-001, 002 and 003]
not listed: [25] | [26] | [27] | [28]
significant cell viability decrease: all other assays above

ATCATCTGGATTAGTG (chemistry not given here) [SEQ ID NO: 14, Antisense oligonucleotide targeting BX470102.3-008]
not listed: [27] | [28]
significant cell viability decrease: all other assays above

CTCATGAGCTGTCGTA (QIAGEN GapmeR, modification pattern not given here) [SEQ ID NO: 41, Antisense oligonucleotide targeting AC004540.4-001 and AC004540.4-002]
significant cell viability decrease: [27] | [28] | D04 melanoma cell line | [19] | [20] | [21] | [22] | [23] | MM415 melanoma cell line | [26] | [24] | VMM39 melanoma cell line
